Structures are written as SMILES. Calls of active or inactive are those of the source. No stated cut-off is given here; in the data, active = inhibition of 80% or more and inactive = less.

The test system of the experiment is Naegleria gruberi. Put plainly: microbe, parasite or virus in culture. The format is functional. Conditions: NEG-M, CONC 10 uM.
Description: Growth inhibiting activity of Naegleria gruberi in vitro
For orientation: inhibition means the share of the control response that was lost under treatment. `COc1cccc2c(C)nc(N=C(N)N)nc12`: the inhibition at 10 µM is listed as 24.2% (not active).

As for `CCC(C)NC(=O)c1ccc(NC(=O)C2(c3ccccc3)CCCC2)cc1` (stereo unspecified), the inhibition at 10 µM was 0.4% (not active).

As for `CC(c1cc(Cl)cc(Cl)c1)N(C)c1ncc2c(N)nc(N)nc2n1` (stereo unspecified), the inhibition at 10 µM is 11% (not active).

`CCN(CC)CCCN1CCN(C(=O)c2cccc(-c3noc(C(F)(F)F)n3)c2)CC1`: the inhibition at 10 µM is given as 13% (not active).

`O=C(NC1CC1)c1ccc(N2CCOc3ccc(Cl)cc32)s1`: the inhibition at 10 µM is on record as 27.6% (not active).

Turning to `O=C(NCCN1CCCC1)c1cc(NCCN2CCOCC2)nc2ccc(Cl)cc12`, the inhibition at 10 µM is reported as 11% (not active).

For the compound `O=C(NC1=NCCS1)c1sc2cc(F)ccc2c1Cl`, the inhibition at 10 µM was 34.6% (not active).

On to `O=C(NC1CC1)c1ccc(CSCc2ccccc2Cl)o1`, for which the inhibition at 10 µM is given as 5.6% (not active).

Turning to `Cc1ccc2[nH]c3c(NCCN(C)C)ncnc3c2c1`, the inhibition at 10 µM is on record as 23.7% (not active).

Regarding `CCOc1ccccc1C(=O)Nc1cccc(-c2nc3ncccn3c2C)c1`, the inhibition at 10 µM is listed as 34.5% (not active).

On to `NCC(c1cccs1)S(=O)(=O)c1ccccc1` (stereo unspecified), for which the inhibition at 10 µM is given as 7.1% (not active).

On to `CC(C)c1ncc(-c2ccncc2)c([C@H]2CC[C@H](CNC(=O)c3cccnc3)CC2)n1`, for which the inhibition at 10 µM is on record as 32.5% (not active).

Regarding `CN1CCN(c2cc(-c3ccc(F)cc3)nc(-c3ccncc3)n2)CC1`, the inhibition at 10 µM is listed as 30% (not active).

On to `CC(C)(C)c1cc(C(=O)Nc2cccnc2)cc(C(=O)Nc2cccnc2)c1`, for which the inhibition at 10 µM is on record as 28% (not active).

Regarding `c1ccc(-c2nc(NC3CCCCC3)cc(C3CC3)n2)nc1`, the inhibition at 10 µM is on record as 23.7% (not active).

`OCCc1ccc(Nc2nccc(-c3nnc4ccccn34)n2)cc1`: the inhibition at 10 µM is reported as 18.7% (not active).

As to `Cc1ccc(NC(=O)CC2COc3ccccc3O2)cc1Cl` (stereo unspecified), the inhibition at 10 µM is listed as 79.9% (not active).

On to `CNC(=O)c1cc(S(=O)(=O)N2CCN(c3ccccn3)CC2)cs1`, for which the inhibition at 10 µM is reported as 32.9% (not active).

Turning to `CC[C@H](CO)NCCN[C@H](CC)CO`, the inhibition at 10 µM is reported as 26.7% (not active).

For `Clc1cccc(CO[C@H]2CCc3ccccc3[C@@H]2n2ccnn2)c1`, the inhibition at 10 µM is listed as 12.6% (not active).

As to `Cc1[nH]c2cc(F)cc(F)c2c(=O)c1-c1ccc(Oc2ccc(OC(F)(F)F)cc2)cc1`, the inhibition at 10 µM is 11.3% (not active).

As for `Cc1ccc(S(=O)(=O)Nc2ccc(CN3CCN(C(=O)c4cccc(C#N)c4)CC3)cc2)cc1`, the inhibition at 10 µM was 19.9% (not active).

As to `NCCN(C(=O)c1ccc(Cl)cc1Cl)c1ccc(OCc2ccc(Cl)cc2)cc1`, the inhibition at 10 µM is 29.6% (not active).

As for `O=C(C1CCN(c2nnnn2-c2ccccc2)CC1)N1CCc2ccccc2C1`, the inhibition at 10 µM is reported as 25.8% (not active).

Turning to `CCN(CC)CCCCCCNc1cc(OC)cc2c(C)ccnc12` [SITAMAQUINE], the inhibition at 10 µM was 40.1% (not active).

`COc1ccc(N(CCc2cccc(C)n2)C(C)=O)cc1`: the inhibition at 10 µM is 19.6% (not active).

As for `COc1cc(OC)cc(C(=O)NCC2Cc3cc(Cl)cc(-c4ccncc4)c3O2)c1` (stereo unspecified), the inhibition at 10 µM is 20.9% (not active).

With `Cc1cc(NCC(C)C)c2[nH]nc(-c3ccccc3)c2n1`, the inhibition at 10 µM was 25.8% (not active).

As for `CC(=O)NCC1CN(c2ccc(-c3ccc(CO)cc3)c(F)c2)C(=O)O1` (stereo unspecified), the inhibition at 10 µM is listed as 35.1% (not active).

Consider `Cc1ccc2oc(-c3cc(NC(=O)Cc4ccccc4)ccc3Cl)nc2c1`, for which the inhibition at 10 µM was 44.5% (not active).

Turning to `CNC(=O)CNc1nc(-c2ccccn2)nc2scc(-c3ccccc3)c12`, the inhibition at 10 µM is on record as 22.6% (not active).

With `CC(C)C(NC(=O)Cc1cccc2ccccc12)C(=O)Nc1cccc(C#N)c1` (stereo unspecified), the inhibition at 10 µM was 37.5% (not active).

Regarding `Cc1ncc(-c2ccnc(Nc3ccc(S(C)(=O)=O)cc3)n2)n1C(C)C` [AZD-5438], the inhibition at 10 µM is 47.7% (not active).

As to `N#Cc1ccc(-c2cnc(N)c(-c3ccc(C(N)=O)cc3)n2)cc1`, the inhibition at 10 µM was 21.8% (not active).

Turning to `CN(C)c1cc(NC(=O)Nc2ccccc2)c2ccccc2n1`, the inhibition at 10 µM is listed as 22.3% (not active).

Regarding `CCc1ccc(S(=O)(=O)Nc2cc(CN3CCN(CCC(C)C)CC3)ccc2C)cc1`, the inhibition at 10 µM is given as 48.7% (not active).

For the compound `O=C(Nc1ccc(N2CCNCC2)cc1)c1ccn2ncc(-c3cccc(Cl)c3)c2n1`, the inhibition at 10 µM is 18.8% (not active).

As for `O=C(NC1CCN(c2ccnc3ccccc23)C1)c1cccc(C(F)(F)F)c1` (stereo unspecified), the inhibition at 10 µM was 6.7% (not active).

On to `c1ccc(-c2cc(N3CCCCC3)c3ccccc3n2)nc1`, for which the inhibition at 10 µM was 20.7% (not active).

With `CCc1c(C)nc(-n2nc(C)cc2NC(=O)c2ccccc2SC)[nH]c1=O`, the inhibition at 10 µM was 17.4% (not active).

For `Cc1nn(C(=O)Nc2cccc(C(F)(F)F)c2)c(C)c1Sc1ncccn1`, the inhibition at 10 µM is 16.7% (not active).

In the case of `Nc1nc2cc(-c3cncc(Oc4ccc(F)cc4)c3)ccc2[nH]1`, the inhibition at 10 µM is listed as 35.5% (not active).

For `CC(=O)NC[C@@H]1CN(c2ccc(N3CCOCC3)c(F)c2)C(=O)O1`, the inhibition at 10 µM is given as 20.1% (not active).

In the case of `CCn1cnc2c(Nc3cc(F)cc(F)c3)nc(C#N)nc21`, the inhibition at 10 µM is 83.2% (active).

In the case of `CCN(CC)S(=O)(=O)c1ccc(Cl)c(C(=O)Nc2ccc3nc(C)sc3c2)c1`, the inhibition at 10 µM is 84.7% (active).

For the compound `O=C(NC1CCCCC1)N1CCN(Cc2ccc3c(c2)OCO3)CC1`, the inhibition at 10 µM is reported as 31.3% (not active).

Take `CC(C)(C)OC(=O)N1CCN(c2cc(-c3ccc(Oc4ccccc4)cc3)n[nH]2)CC1`: the inhibition at 10 µM was 65.7% (not active).

For the compound `CCC(=O)Nc1ccccc1C(=O)Nc1ccccn1`, the inhibition at 10 µM is on record as 35.7% (not active).

Turning to `CCCCc1ccc(NC(=O)Nc2ccc(O[C@H]3CCCC[C@@H]3N(C)c3ccccc3)c(F)c2)cc1`, the inhibition at 10 µM is on record as 41.1% (not active).

Consider `Cc1cc(NC(=O)c2ccc(Oc3ccc(Cl)cc3O)o2)no1`, for which the inhibition at 10 µM is given as 0% (not active).

`COc1ccc(Nc2ccccc2NC(=O)c2ccc(O)nc2)cc1`: the inhibition at 10 µM is listed as 24.1% (not active).

With `COc1cc(NC(=O)Cc2nn(C)c(=O)c3ccccc23)ccc1Cl`, the inhibition at 10 µM was 90.7% (active).

On to `NCCCC(N)(C(=O)O)C(F)F` (stereo unspecified) [EFLORNITHINE], for which the inhibition at 10 µM is reported as 33.6% (not active).

In the case of `O=C1O[C@@H](COc2ccon2)CN1c1cc(F)c(C2=CCN(Cc3ccccc3)CC2)c(F)c1`, the inhibition at 10 µM is reported as 4.4% (not active).

Consider `Cc1nn(C)c(C)c1NS(=O)(=O)c1c(Cl)cc(-c2ccnc(N3CCNCC3)c2)cc1Cl`, for which the inhibition at 10 µM was 58.2% (not active).

Turning to `CN1CCCC1CCO[C@](C)(c1ccccc1)c1ccc(Cl)cc1` (stereo partly specified), the inhibition at 10 µM is 64.4% (not active).

Turning to `Cc1cc(C)n(-c2ccc(NC(=O)C3CCN(Cc4cnc(C)s4)CC3)cc2)n1`, the inhibition at 10 µM is on record as 6.1% (not active).

With `CC(C)(C)c1ccc(N[C@@H]2CCCC[C@H]2NC(=O)c2ccco2)cc1`, the inhibition at 10 µM was 8.8% (not active).

For `COc1cc(C2=NCCN2)ccc1-c1cn(-c2cccc(C3=NCCN3)c2)nn1`, the inhibition at 10 µM is given as 20.1% (not active).

`CNC1C(OC2C(OC3C(O)C(O)C(N=C(N)N)C(O)C3N=C(N)N)OC(C)C2(O)C=O)OC(CO)C(O)C1O` (stereo unspecified): the inhibition at 10 µM is reported as 0% (not active).

Regarding `Cc1ccccc1CN1CCC(O)(c2ccc(Cl)c(C(F)(F)F)c2)CC1`, the inhibition at 10 µM was 47.4% (not active).

`CCc1nc2ccccc2n1CC(O)COc1cc(C)ccc1Cl` (stereo unspecified): the inhibition at 10 µM is reported as 25.3% (not active).

As for `COc1ccc(-c2cc(NC(=O)c3ccc(F)cc3Cl)ccc2OC)cc1`, the inhibition at 10 µM is reported as 38.4% (not active).

With `CC(C)NCC(=O)Nc1cccc(C(=O)Nc2cccc(C(F)(F)F)c2)c1`, the inhibition at 10 µM is listed as 4.8% (not active).

Regarding `O=C(c1ccc(F)cc1)N(CCNc1ccccc1)c1ccccc1`, the inhibition at 10 µM is listed as 24.1% (not active).

On to `CCc1nn(C)c(C(=O)NCc2ccc(Oc3ccc(C)cc3)cc2)c1Cl` [TOLFENPYRAD], for which the inhibition at 10 µM was 93.3% (active).

`CCOc1ccccc1NC(C)C(=O)Nc1cc(C(F)(F)F)ccc1N1CCOCC1` (stereo unspecified): the inhibition at 10 µM is 20.8% (not active).

For the compound `NC(CC(=O)c1ccc(Cl)cc1Cl)C(Cl)(Cl)Cl` (stereo unspecified), the inhibition at 10 µM is recorded as 11.7% (not active).

Regarding `c1ccc(Oc2ccc(-c3cc(N4CCOCC4)[nH]n3)cc2)cc1`, the inhibition at 10 µM is 22.4% (not active).

Turning to `CC(C)(C)C(O)C(Oc1ccc(-c2ccccc2)cc1)n1cncn1` (stereo unspecified) [BITERTANOL], the inhibition at 10 µM is 81% (active).

For the compound `Cc1cc(C)cc(COc2ccc3c(C)c(CCC(=O)O)c(=O)oc3c2C)c1`, the inhibition at 10 µM is on record as 40.9% (not active).

Take `O=C(C1CCN(c2nnc(-n3cccc3)s2)CC1)N1CCC(Cc2ccccc2)CC1`: the inhibition at 10 µM was 31.1% (not active).

Regarding `Cc1noc(C)c1C(=O)N1CCCC(c2[nH]c3c(C)cccc3c2-c2ccncc2)C1` (stereo unspecified), the inhibition at 10 µM is on record as 27.1% (not active).

For the compound `Cc1nc(-c2ccccn2)nc(NCCc2ccc(S(C)(=O)=O)cc2)c1Cl`, the inhibition at 10 µM is recorded as 26.6% (not active).

For the compound `CC1CCCN(C(=O)C(C)Nc2cc(Cl)ccc2N2CCOCC2)C1` (stereo unspecified), the inhibition at 10 µM is reported as 43.8% (not active).

For `Cn1ccnc1CNCCS(=O)(=O)c1cccc(Nc2ccc(-c3cccc(F)c3)cn2)c1`, the inhibition at 10 µM was 26.5% (not active).

For `Nc1ncnc2c1ncn2[C@@H]1O[C@H](COS(=O)(=O)NC(=O)c2ccccc2O)[C@@H](O)[C@H]1O`, the inhibition at 10 µM is recorded as 14.5% (not active).

Regarding `CCC(NC(=O)c1ccccc1NC(=O)c1ccc(C)cc1)C(=O)OC` (stereo unspecified), the inhibition at 10 µM is 4.8% (not active).

With `CC1CCCCN1C(=O)NCCc1coc(-c2ccc(F)cc2)n1` (stereo unspecified), the inhibition at 10 µM is listed as 42.6% (not active).

On to `COc1ccc(-c2cnc3cnc(-c4cccc(OC(C)C)c4)cn23)cc1`, for which the inhibition at 10 µM is listed as 9.4% (not active).

Take `c1cncc(NCc2ccc(-c3cc4ccncc4cc3OC3CCNCC3)s2)c1`: the inhibition at 10 µM is 19.4% (not active).

Source of the values: ChEMBL document CHEMBL4513101, “Naegleria gruberi Pathogen Box compounds screening” (2021).
